Results taken from patent publication US4187292A, “Antibiotics produced from the microorganism nocardice” (Takeda Chemical Industries, Ltd., priority 1977, dated 1980).
In brackets after ≈: the same amount, converted by molar mass.

Legend:
Stability in solution = assay type: physicochemical
Tetrahymena pyriformis W = assay: Activity against Tetrahymena pyriformis W, serial dilution method; assay type: cell-based; settings: Proteose-peptone solution, pH 7.0
Description: (§1) The antimicrobial activities of Antibiotics C-14919 E-1 and E-2 were assayed by the serial dilution method using Trypticase-soy agar (BBL), glucose nutrient agar and glycerol nutrient agar as test media (Table 5). In addition, the activities against Tetrahymena pyriformis W were determined by the serial dilution method using the assay medium [Proteose-peptone 20 g, yeast extract 1 g, glucose 2 g, distilled water 1000 ml, 1 M-phosphate buffer (pH 7.0) 10 ml].
****Proteose-peptone solution

Candida albicans [1] = assay: Antimicrobial activity, serial dilution method (Glucose nutrient agar); assay type: cell-based; settings: IFO 0583
Description: as §1
(§2) **Glucose nutrient agar

[2] = Acute toxicity test in mice; assay type: in vivo; settings: intraperitoneal administration
Source text: The assumed LD50 as determined by intraperitoneal administration of C-14919 E-1 and E-2 in an acute toxicity test using mice as test animals are as follows.

Candida albicans [3] = assay: Antimicrobial activity, serial dilution method (Trypticase-soy agar); assay type: cell-based; settings: IFO 0583
Description: as §1

Solubility = assay type: physicochemical
Mycobacterium phlei = assay: Antimicrobial activity, serial dilution method; assay type: cell-based; settings: Glycerol nutrient agar
Description: as §1
(§3) ***Glycerol nutrient agar

Mycobacterium avium = assay: Antimicrobial activity, serial dilution method; assay type: cell-based; settings: Glycerol nutrient agar
Description: as §1, §3

Bacillus pumilus = assay: Antimicrobial activity, serial dilution method; assay type: cell-based; settings: IFO 3813; Trypticase-soy agar
Description: as §1

[4] = system: Staphylococcus aureus 209P; assay: Antimicrobial activity, serial dilution method; assay type: cell-based; settings: IFO 12732; Trypticase-soy agar
Description: as §1

Pseudomonas aeruginosa = assay: Antimicrobial activity, serial dilution method; assay type: cell-based; settings: IFO 3080; Trypticase-soy agar
Description: as §1

Bacillus subtilis 6633 = assay: Antimicrobial activity, serial dilution method; assay type: cell-based; settings: IFO 3134; Trypticase-soy agar
Description: as §1

Bacillus megaterium = assay: Antimicrobial activity, serial dilution method; assay type: cell-based; settings: IFO 12108; Trypticase-soy agar
Description: as §1

Bacillus brevis = assay: Antimicrobial activity, serial dilution method; assay type: cell-based; settings: IFO 3331; Trypticase-soy agar
Description: as §1

Proteus vulgaris = assay: Antimicrobial activity, serial dilution method; assay type: cell-based; settings: IFO 3045; Trypticase-soy agar
Description: as §1

Serratia marcescens = assay: Antimicrobial activity, serial dilution method; assay type: cell-based; settings: IFO 3046; Trypticase-soy agar
Description: as §1

Micrococcus flavus = assay: Antimicrobial activity, serial dilution method; assay type: cell-based; settings: IFO 3242; Trypticase-soy agar
Description: as §1

Alcaligenes faecalis = assay: Antimicrobial activity, serial dilution method; assay type: cell-based; settings: IFO 13111; Trypticase-soy agar
Description: as §1

Sarcina lutea = assay: Antimicrobial activity, serial dilution method; assay type: cell-based; settings: IFO 3232; Trypticase-soy agar
Description: as §1

Bacillus cereus = assay: Antimicrobial activity, serial dilution method; assay type: cell-based; settings: IFO 3514; Trypticase-soy agar
Description: as §1

Escherichia coli K-12 = assay: Antimicrobial activity, serial dilution method; assay type: cell-based; settings: IFO 3301; Trypticase-soy agar
Description: as §1

Bacillus subtilis PCI219 = assay: Antimicrobial activity, serial dilution method; assay type: cell-based; settings: IFO 3513; Trypticase-soy agar
Description: as §1

Salmonella typhimurium = assay: Antimicrobial activity, serial dilution method; assay type: cell-based; settings: IFO 12529; Trypticase-soy agar
Description: as §1

P388 leukemia = assay: Therapeutic activity against P388 leukemia in mice; assay type: in vivo; settings: for antitumour activity in terms of the extension of life spans: 5 mg/kg/day, intraperitoneally, consecutive days, P388 1×10^6 cells/animal i.p. transplanted; for life-extending effect upon tumour-bearing mammals: e.g. mouse
Description: The therapeutic activity (intraperitoneally administered for a consecutive days) of C-14919 E-1 and E-2 against P388 leukemia in mice (1×10^6 cells/animal, mouse, itraperitoneally transplanted) was investigated. The antitumour activity in terms of the extension of life spans was 144% at the dose level of 5 mg/kg/day.

[5] = system: Gram-positive bacteria, fungi and yeasts; assay: Antimicrobial spectrum (summary of Table 5); assay type: cell-based; settings: antimicrobial spectrum of Table 5
Description: as §1

[6] = Acid, neutral or basic nature / lipophilicity; assay type: physicochemical
Hormodendrum pedrosoi = assay: Antimicrobial activity, serial dilution method; assay type: cell-based; settings: IFO 6071; Glucose nutrient agar
Description: as §1, §2

Penicillium chrysogenum = assay: Antimicrobial activity, serial dilution method; assay type: cell-based; settings: IFO 4626; Glucose nutrient agar
Description: as §1, §2

Microsporum cookei = assay: Antimicrobial activity, serial dilution method; assay type: cell-based; settings: IFO 8303; Glucose nutrient agar
Description: as §1, §2

Cryptococcus neoformans = assay: Antimicrobial activity, serial dilution method; assay type: cell-based; settings: IFO 0410; Glucose nutrient agar
Description: as §1, §2

Trychophyton rubrum = assay: Antimicrobial activity, serial dilution method; assay type: cell-based; settings: IFO 5467; Glucose nutrient agar
Description: as §1, §2

Candida krusei = assay: Antimicrobial activity, serial dilution method; assay type: cell-based; settings: IFO 1395; Glucose nutrient agar
Description: as §1, §2

Candida = assay: Antimicrobial activity, serial dilution method; assay type: cell-based; settings: IFO 1396; Glucose nutrient agar
Description: as §1, §2

Candida tropicalis = assay: Antimicrobial activity, serial dilution method; assay type: cell-based; settings: IFO 1400; Glucose nutrient agar
Description: as §1, §2

Aspergillus niger = assay: Antimicrobial activity, serial dilution method; assay type: cell-based; settings: IFO 4066; Glucose nutrient agar
Description: as §1, §2

Candida utilis = assay: Antimicrobial activity, serial dilution method; assay type: cell-based; settings: IFO 0619; Glucose nutrient agar
Description: as §1, §2

Candida pseudotropicalis = assay: Antimicrobial activity, serial dilution method; assay type: cell-based; settings: IFO 0617; Glucose nutrient agar
Description: as §1, §2

Saccharomyces cerevisiae = assay: Antimicrobial activity, serial dilution method; assay type: cell-based; settings: IFO 0209; Glucose nutrient agar
Description: as §1, §2

Microsporum canis = assay: Antimicrobial activity, serial dilution method; assay type: cell-based; settings: IFO 7863; Glucose nutrient agar
Description: as §1, §2

[7] = Room temp., basic solution/conditions
[8] = Room temp., neutral and weakly acidic solutions/conditions

## COC1C[C@H](C)[C@@H](OC)C2=CC(=O)C=C(NC(=O)/C(C)=C/C=C\[C@H](C)C(OC(N)=O)/C(C)=C/[C@@H](C)[C@@H]1OC)C2=O (some centres unmarked) [C-14919 E-1]
Stability in solution; 80° C., 1 hr.
  Stability: unstable
Stability in solution; [7]
  Stability: Unstable
Stability in solution; [8]
  Stability: Stable
Tetrahymena pyriformis W
  MIC: 10 µg/mL (≈ 17.9 µM)
Candida albicans [1]
  MIC: 50 µg/mL (≈ 89.5 µM)
[2]
  assumed LD50: 50 to 100 mg/kg
Candida albicans [3]
  MIC: 25 µg/mL (≈ 44.7 µM)
Solubility
  Solubility in acetone: Soluble
  Solubility in benzene: Sparingly soluble
  Solubility in butanol: Soluble
  Solubility in chloroform: Soluble
  Solubility in diethyl ether: Sparingly soluble
  Solubility in dimethylsulfoxide: Readily soluble
  Solubility in ethanol: Soluble
  Solubility in ethyl acetate: Soluble
  Solubility in hexane: Insoluble
  Solubility in methanol: Soluble
  Solubility in methyl isobutyl ketone: Soluble
  Solubility in petroleum ether: Insoluble
  Solubility in water: Insoluble
Mycobacterium phlei
  MIC: > 100 µg/mL
Mycobacterium avium
  MIC: > 100 µg/mL
Bacillus pumilus
  MIC: 50 µg/mL (≈ 89.5 µM)
[4]
  MIC: > 100 µg/mL
Pseudomonas aeruginosa
  MIC: > 100 µg/mL
Bacillus subtilis 6633
  MIC: 50 µg/mL (≈ 89.5 µM)
Bacillus megaterium
  MIC: 50 µg/mL (≈ 89.5 µM)
Bacillus brevis
  MIC: 50 µg/mL (≈ 89.5 µM)
Proteus vulgaris
  MIC: > 100 µg/mL
Serratia marcescens
  MIC: > 100 µg/mL
Micrococcus flavus
  MIC: 50 µg/mL (≈ 89.5 µM)
Alcaligenes faecalis
  MIC: > 100 µg/mL
Sarcina lutea
  MIC: 50 µg/mL (≈ 89.5 µM)
Bacillus cereus
  MIC: > 100 µg/mL
Escherichia coli K-12
  MIC: > 100 µg/mL
Bacillus subtilis PCI219
  MIC: 100 µg/mL (≈ 179 µM)
Salmonella typhimurium
  MIC: > 100 µg/mL
P388 leukemia
  antitumour activity in terms of the extension of life spans: 144%
  life-extending effect upon tumour-bearing mammals: life-extending effect
[5]
  antimicrobial activity: display activity against Gram-positive bacteria, fungi and yeasts
[6]
  Acid, neutral or basic: a neutral substance
  lipophilicity: lipophyl
Hormodendrum pedrosoi
  MIC: > 100 µg/mL
Penicillium chrysogenum
  MIC: 50 µg/mL (≈ 89.5 µM)
Microsporum cookei
  MIC: > 100 µg/mL
Cryptococcus neoformans
  MIC: > 100 µg/mL
Trychophyton rubrum
  MIC: > 100 µg/mL
Candida krusei
  MIC: > 100 µg/mL
Candida
  MIC: 50 µg/mL (≈ 89.5 µM)
Candida tropicalis
  MIC: > 100 µg/mL
Aspergillus niger
  MIC: 100 µg/mL (≈ 179 µM)
Candida utilis
  MIC: > 100 µg/mL
Candida pseudotropicalis
  MIC: 100 µg/mL (≈ 179 µM)
Saccharomyces cerevisiae
  MIC: 100 µg/mL (≈ 179 µM)
Microsporum canis
  MIC: > 100 µg/mL

## COC1CC(C)C(OC)c2cc(O)cc(c2O)NC(=O)/C(C)=C/C=C\C(C)C(OC(N)=O)/C(C)=C/C(C)C1OC (centres unmarked) [C-14919 E-2]
Stability in solution; 80° C., 1 hr.
  Stability: unstable
Stability in solution; [7]
  Stability: Unstable
Stability in solution; [8]
  Stability: Stable
Tetrahymena pyriformis W
  MIC: 10 µg/mL (≈ 17.8 µM)
Candida albicans [1]
  MIC: 25 µg/mL (≈ 44.6 µM)
[2]
  assumed LD50: 25 to 100 mg/kg
Candida albicans [3]
  MIC: 6.25 µg/mL (≈ 11.1 µM)
Solubility
  Solubility in acetone: Soluble
  Solubility in benzene: Sparingly soluble
  Solubility in butanol: Soluble
  Solubility in chloroform: Sparingly soluble
  Solubility in diethyl ether: Sparingly soluble
  Solubility in dimethylsulfoxide: Readily soluble
  Solubility in ethanol: Soluble
  Solubility in ethyl acetate: Soluble
  Solubility in hexane: Insoluble
  Solubility in methanol: Soluble
  Solubility in methyl isobutyl ketone: Soluble
  Solubility in petroleum ether: Insoluble
  Solubility in water: Sparingly soluble
Mycobacterium phlei
  MIC: > 100 µg/mL
Mycobacterium avium
  MIC: > 100 µg/mL
Bacillus pumilus
  MIC: 100 µg/mL (≈ 178 µM)
[4]
  MIC: > 100 µg/mL
Pseudomonas aeruginosa
  MIC: > 100 µg/mL
Bacillus subtilis 6633
  MIC: 100 µg/mL (≈ 178 µM)
Bacillus megaterium
  MIC: 50 µg/mL (≈ 89.2 µM)
Bacillus brevis
  MIC: 50 µg/mL (≈ 89.2 µM)
Proteus vulgaris
  MIC: > 100 µg/mL
Serratia marcescens
  MIC: > 100 µg/mL
Micrococcus flavus
  MIC: 50 µg/mL (≈ 89.2 µM)
Alcaligenes faecalis
  MIC: 100 µg/mL (≈ 178 µM)
Sarcina lutea
  MIC: 50 µg/mL (≈ 89.2 µM)
Bacillus cereus
  MIC: > 100 µg/mL
Escherichia coli K-12
  MIC: > 100 µg/mL
Bacillus subtilis PCI219
  MIC: > 100 µg/mL
Salmonella typhimurium
  MIC: > 100 µg/mL
P388 leukemia
  antitumour activity in terms of the extension of life spans: 144%
  life-extending effect upon tumour-bearing mammals: life-extending effect
[5]
  antimicrobial activity: display activity against Gram-positive bacteria, fungi and yeasts
[6]
  Acid, neutral or basic: a neutral substance
  lipophilicity: lipophyl
Hormodendrum pedrosoi
  MIC: > 100 µg/mL
Penicillium chrysogenum
  MIC: 25 µg/mL (≈ 44.6 µM)
Microsporum cookei
  MIC: > 100 µg/mL
Cryptococcus neoformans
  MIC: > 100 µg/mL
Trychophyton rubrum
  MIC: > 100 µg/mL
Candida krusei
  MIC: > 100 µg/mL
Candida
  MIC: 25 µg/mL (≈ 44.6 µM)
Candida tropicalis
  MIC: > 100 µg/mL
Aspergillus niger
  MIC: 100 µg/mL (≈ 178 µM)
Candida utilis
  MIC: > 100 µg/mL
Candida pseudotropicalis
  MIC: 100 µg/mL (≈ 178 µM)
Saccharomyces cerevisiae
  MIC: 100 µg/mL (≈ 178 µM)
Microsporum canis
  MIC: > 100 µg/mL
